Measured values published in patent US7045512B2 (priority 2003, dated 2006).

Columns and labels:
[1] = tested on: Erysiyphe graminis f.sp. hordei; assay: Foliar spray for the control of barley powdery mildew; format: in vivo; settings: Hordeum vulgare, greenhouse foliar spray, barley plants, read-out: Foliar Application (Percent Control) Barley Powdery Mildew
Description: Foliar Spray for the Control of Barley Powdery Mildew caused by Erysiyphe graminis f.sp. hordei
Technical grade material at defined ppm rates (w/v) in an acetone:water mixture (1:9) containing 0.1% Tween 20 (v/v) is sprayed to near run-off onto 7-days-old greenhouse-grown barley plants (var. “Robust”) at the cotyledon stage. Treated plants are inoculated within 24 hours by brushing mildew-infected plants over the treated plants. Inoculated plants are kept in the greenhouse for 6–8 days for disease development. Disease severity is examined and the % control is calculated as [% disease on untreated plants−% disease on treated plants]/% diseases in untreated plants. The results of these tests are shown in Table 2A below under the heading “Foliar Application—Barley Powdery Mildew”.

[2] = tested on: Barley Powdery Mildew; assay: Soil drench for the control of barley powdery mildew; format: in vivo, Erysiyphe graminis f.sp. hordei; settings: 300 ppm, greenhouse soil drench
Description: (§1) Soil Drench for the Control of Barley or Cucumber Powdery Mildew
(§2) Technical grade material formulated as described for foliar sprays is dispensed at defined rates (ml/cm^3) into the soil in the pots for barley and cucumber in the stages as described for the foliar sprays. Treated plants are inoculated, within 24 hours with the respective powdery mildew species as described for the foliar spray tests. Inoculated plants are kept in the greenhouse for 6–8 days for disease development. Disease severity is examined and the % control is calculated as [% disease on untreated plants−% disease on treated plants]/% disease on untreated plants. The results of these tests are shown in Table 2B below under the heading “Drench Application—Barley Powdery Mildew” and “Drench Application—Cucumber Powdery Mildew”.

[3] = tested on: Rhizoctonia solani; assay: microbe, parasite or virus in culture; format: cell-based; settings: Rhizoctonia solani, 48 h, read-out: Percent Control Rhizoctonia solani
[4] = tested on: Cucumber Powdery Mildew; assay: Soil drench for the control of cucumber powdery mildew; format: in vivo; settings: 300 ppm, greenhouse soil drench
Description: as §1, §2

[5] = tested on: Helminthosporium sativum; assay: Foliar spray for the control of barley blotch; format: in vivo; settings: Helminthosporium, greenhouse foliar spray, barley plants, read-out: Foliar Application (Percent Control) Barley Blotch
Description: Foliar Spray for the Control of Barley Blotch Caused by Helminthosporium sativum
Technical grade material at defined ppm rates (w/v) in an acetone:water mixture (1:9) containing 0.1% Tween 20 (v/v) is sprayed to near run-off onto 7-days-old greenhouse-grown barley plants (var. “Robust”) at the cotyledon stage. Treated plants are inoculated within 24 hours from spraying with an aqueous suspension of approximately 15,000 conidia/ml of Helminthosporium sativum grown on artificial medium. Inoculated plants are placed into a high humidity chamber for 24 hr and then transferred to the greenhouse for 4–5 days for disease development. Disease severity is examined and the % control is calculated as [% disease on untreated plants−% disease on treated plants]/% disease on untreated plants.
The results of these tests are shown in Table 2A below under the heading “Foliar Application—Barley Blotch”.

[6] = tested on: Pythium ultimum; assay: microbe, parasite or virus in culture; format: cell-based; settings: Globisporangium ultimum, 48 h, read-out: Percent Control Pythium ultimum
[7] = tested on: Sclerotium rolfsii; format: cell-based
[8] = tested on: Fusarium nivale; assay: microbe, parasite or virus in culture; format: cell-based; settings: Microdochium nivale, 48 h, read-out: Percent Control Fusarium nivale
[9] = tested on: Pyricularia oryzae; assay: whole plant or invertebrate; format: in vivo; settings: Pyricularia oryzae, foliar, read-out: Foliar Application (Percent Control) Rice Blast
[10] = tested on: Uromyces appendiculatus; assay: Foliar spray for the control of bean rust; format: in vivo; settings: 300 ppm, greenhouse foliar spray, Pinto bean plants
Description: Foliar Spray for the Control of Bean Rust Caused by Uromyces appendiculatus
Technical grade material at defined ppm rates (w/v) in an acetone:water mixture (1:9) containing 0.1% Tween 20 (v/v) is sprayed to near run-off onto 10-days-old greenhouse-grown Pinto bean plants (var. “Othello”) in the second leaf stage. Treated plants are inoculated within 24 hours with an aqueous suspension of approximately 20,000 uredospores of Uromyces appendiculatus harvested from rust-infected plants. Inoculated plants are placed into a high humidity chamber for 24 hr and then transferred to the greenhouse for two weeks for disease development. Disease severity is examined and the % control is calculated as [% disease on untreated plants−% disease on treated plants]/% disease on untreated plants. The results of these tests are shown in Table 2A below under the heading “Foliar Application—Bean Rust”.

[11] = tested on: Phytophthora infestans; assay: microbe, parasite or virus in culture; format: cell-based; settings: Phytophthora infestans, 48 h, read-out: Percent Control Phytophthora infestants
[12] = tested on: Botrytis cinerea; assay: microbe, parasite or virus in culture; format: cell-based; settings: Botrytis cinerea, 48 h, read-out: Percent Control Botrytis cinerea
[13] = tested on: Botrytis cinerea; assay: Foliar spray for the control of geranium gray mold; format: in vivo; settings: 300 ppm, greenhouse foliar spray, geranium plants
Description: Foliar Spray for the Control of Geranium Gray Mold Caused by Botrytis cinerea
Technical grade material at defined ppm rates (w/v) in an acetone:water mixture (1:9) containing 0.1% Tween 20 (v/v) is sprayed to near run-off onto mature greenhouse-grown geranium plants (var. “Pinto White”) in the second leaf stage. Treated plants are inoculated within 24 hours with an aqueous suspension of approximately 100,000 conidia/ml of Botrytis cinerea grown on artificial medium. Inoculated plants are placed into a high humidity chamber for 5 days and then transferred to the greenhouse for one day for disease development. Disease severity is examined and the % control is calculated as [% disease on untreated plants−% disease on treated plants]/% disease on untreated plants. The results of these tests are shown in Table 2A below under the heading “Foliar Application—Geranium Gray Mold”.

[14] = tested on: Phytophthora infestans; format: in vivo; settings: 300 ppm, greenhouse foliar spray, tomato plants

Row | SMILES | pest or weed control at 300 ppm [1] [%] | Drench Application (Percent Control) Barley Powdery Mildew [2] [%] | inhibition of growth at 100 ppm [3] [%] | Drench Application (Percent Control) Cucumber Powdery Mildew [4] [%] | pest or weed control at 300 ppm [5] [%] | inhibition of growth at 100 ppm [6] [%] | inhibition of growth at 100 ppm [8] [%] | pest or weed control at 300 ppm [9] [%] | Foliar Application (Percent Control) Bean Rust [10] [%] | inhibition of growth at 100 ppm [11] [%] | inhibition of growth at 100 ppm [12] [%] | Foliar Application (Percent Control) Geranium Gray Mold [13] [%] | inhibition of growth at 10 ppm [3] [%] | inhibition of growth at 10 ppm [6] [%] | Foliar Application (Percent Control) Tomato Late Blight [14] [%] | inhibition of growth at 10 ppm [8] [%] | inhibition of growth at 10 ppm [11] [%] | inhibition of growth at 10 ppm [12] [%] | other results
1 | CC(C)OC(=O)NN(C(=O)C(F)(F)F)c1ccc(Oc2cccc(C(F)(F)F)c2)cc1 [Compound 2, 1-methylethyl 2-(trifluoroacetyl)-2-[4-[3-(trifluoromethyl)phenoxy]phenyl]-hydrazine carboxylate] | 25 | 0 | 82 | 0 | 99 | 100 | 20 | 15 | 0 | 100 | 90 | – | – | – | – | – | – | – | Percent Control Sclerotium rolfsii [7]: 67%
2 | CC(C)OC(=O)NN(C)c1ccc(Oc2cccc(C(F)(F)F)c2)cc1 [Compound 3, 1-methylethyl 2-methyl-2-[4-[3-(trifluoromethyl)phenoxy]phenyl]hydrazine carboxylate] | 62 | 0 | – | 0 | 0 | – | – | 10 | 0 | – | – | 87 | – | – | – | – | – | – | inhibition of growth at 50 ppm [3]: 63%; inhibition of growth at 50 ppm [6]: 100%; inhibition of growth at 50 ppm [8]: 82%; inhibition of growth at 50 ppm [11]: 79%; inhibition of growth at 50 ppm [12]: 100%
3 | CC(=O)NNc1ccc(Oc2cccc(C(F)(F)F)c2)c(F)c1 [Compound 7, N′-{3-fluoro-4-[3-(trifluoromethyl)phenoxy]phenyl}acetohydrazide] | 80 | – | – | – | 80 | – | – | 0 | – | – | – | 80 | 80 | 8 | 0 | 8 | 0 | 30 | –
4 | CC(C)OC(=O)NNc1ccc(-c2cccc(C(F)(F)F)c2)c(F)c1 [Compound 8, isopropyl 2-[2-fluoro-3′-(trifluoromethyl)-1,1′-biphenyl-4-yl]hydrazine-carboxylate] | 0 | – | – | – | 98 | – | – | 70 | – | – | – | 90 | 58 | 26 | 0 | 22 | 18 | 63 | –
5 | CC(C)OC(=O)N1CN(C)CN1c1ccc(Oc2cccc(C(F)(F)F)c2)c(F)c1 [Compound 10, 1-methylethyl 2-[3-fluoro-4-[3-(trifluoromethyl)phenoxy]phenyl]-4-methyl-1,2,4-triazolidine-1-carboxylate] | 100 | – | 79 | – | 90 | 0 | 0 | 0 | – | 0 | 0 | 0 | – | – | – | – | – | – | –
6 | CCC(=NNc1ccc(Oc2cccc(C(F)(F)F)c2)c(F)c1)[N+](=O)[O-] [Compound 12, 1-{3-fluoro-4-[3-(trifluoromethyl)phenoxy]phenyl}-2-(1-nitropropylidene)-hydrazine] | 80 | – | – | – | 0 | – | – | 0 | – | – | – | 0 | 68 | 3 | 0 | 20 | 0 | 18 | –
